According to US20020198510A1, “Method for nasal application of a medicinal substance” (priority 2001, published 2002):
Entries after “also recorded” stand apart in the source; their conditions may differ.

Assay: Evans Blue Dye distribution after administration into the nose of mice
Format: in vivo
Design: key to Dye in Stomach / Dye in Lung: -: no dye is present; traces: minimal amounts are present when examined with the unaided eye but that do not clearly show on photographs; yes: dye is clearly visible; +: dye is clearly visible; ++: heavy dye presence
Details: for Dye in Larynx / Dye in Nasal Cavity / Dye in Nose Skin / Dye in Intestine / Dye in Oral Cavity / Dye in Stomach / Dye in Esophagus Lower / Dye in Esophagus Upper / Dye in Trachea Lower / Dye in Trachea Upper / Dye in Lung: 60 min to sacrifice
Description: To show the distribution of liquid administered through the nose, Evans Blue Dye (0.3%) was administered through a micropipette tip into the nose of mice and chinchillas at various doses, at various levels of sedation or anesthesia, and with the animals in various positions.

[1] = Dye 10 μl single dose, Supine/Supine, anesthesia 200 μl (heavy)
[2] = Dye 10 μl single dose, Upright/Not held, 0 μl (Alert)
[3] = Dye 10 μl single dose, Upright/Not held, anesthesia 200 μl (heavy)
[4] = Dye 20 μl single dose, Supine/Supine, anesthesia 200 μl (heavy)
[5] = Dye 20 μl single dose, Upright/Not held, anesthesia 200 μl (heavy)
[6] = Dye 20 μl, 2 μl/nare at 2 min interval, Supine/Supine, anesthesia 200 μl (heavy)
[7] = Dye 20 μl, 2 μl/nare at 5 min interval, Supine/Supine, anesthesia 200 μl (heavy)
[8] = Dye 20 μl, 2 μl/nare at t = 0, 2, 7, 9 and 11 min, Supine/Supine, anesthesia 200 μl (heavy)
[9] = Dye 30 μl single dose, Prone/Not held, 0 μl (Alert)
[10] = Dye 30 μl single dose, Supine/Supine, anesthesia 200 μl (heavy)
[11] = Dye 30 μl single dose, Upright/Not held, 0 μl (Alert)
[12] = Dye 30 μl single dose, Upright/Not held, anesthesia 120 μl (Mod)
[13] = Dye 30 μl single dose, Upright/Not held, anesthesia 200 μl (heavy)
[14] = Dye 30 μl, 1 drop/5 sec interval, Upright/Not held, anesthesia 200 μl (heavy)
[15] = Dye 30 μl, 2 μl/nare at 5 min interval, Supine/Supine, anesthesia 200 μl (Mod*)
[16] = Dye 30 μl, 2 μl/nare at 5 min interval, Supine/Supine, anesthesia 200 μl (heavy)
[17] = Dye 30 μl, 2 μl/nare at 5 min interval, Supine/Supine, anesthesia 350 μl (heavy)
[18] = Dye 30 μl, 2 μl/nare at 5 min interval, Supine/Supine, anesthesia 400 μl (heavy)
[19] = Dye 30 μl, 5 μl/nare at 10 min interval, Supine/Supine, anesthesia 200 μl (heavy)
[20] = Dye 40 μl single dose, Upright/Not held, anesthesia 200 μl (heavy)
[21] = Dye 40 μl, 2 μl/nare at 5 min interval, Supine/Supine, anesthesia 200 μl (heavy)
[22] = Dye 50 μl single dose, Upright/Not held, 0 μl (Alert)
[23] = Dye 50 μl single dose, Upright/Not held, anesthesia 120 μl (Mod)
[24] = Dye 50 μl single dose, Upright/Not held, anesthesia 200 μl (heavy)
[25] = Dye 50 μl, 5 μl/nare at 30 sec interval, Upright/Not held, anesthesia 120 μl (Mod)

Cc1cc(-c2ccc(/N=N/c3ccc4c(S(=O)(=O)[O-])cc(S(=O)(=O)[O-])c(N)c4c3O)c(C)c2)ccc1/N=N/c1ccc2c(S(=O)(=O)[O-])cc(S(=O)(=O)[O-])c(N)c2c1O.[Na+].[Na+].[Na+].[Na+] [Dye, Evans Blue Dye]
Dye in the stomach (5 μl and 2 μl increments (Table 8)): reduced dye in the stomach at lower incremental doses than larger incremental doses | Dye in Larynx [1]: Yes | Dye in Nasal Cavity [1]: Yes | Dye in Nose Skin [1]: Yes | Dye in Intestine [2]: Yes | Dye in Larynx [2]: Yes | Dye in Nasal Cavity [2]: Yes | Dye in Oral Cavity [2]: Yes | Dye in Stomach [2]: + and Traces | Dye in Esophagus Lower [3]: Traces; also recorded: Yes/Yes | Dye in Esophagus Upper [3]: Traces/; also recorded: Yes/Yes | Dye in Larynx [3]: Yes | Dye in Nasal Cavity [3]: Yes | Dye in Nose Skin [3]: Yes | Dye in Oral Cavity [3]: Yes | Dye in Stomach [3]: Traces and + | Dye in Trachea Lower [3]: Traces | Dye in Trachea Upper [3]: Traces/ | Dye in Esophagus Upper [4]: Traces | Dye in Larynx [4]: Yes | Dye in Nasal Cavity [4]: Yes | Dye in Nose Skin [4]: Yes | Dye in Oral Cavity [4]: Yes | Dye in Trachea Lower [4]: Traces | Dye in Trachea Upper [4]: Traces/ | Dye in Esophagus Lower [5]: Yes/Yes | Dye in Esophagus Upper [5]: Yes/Yes | Dye in Larynx [5]: Yes | Dye in Nasal Cavity [5]: Yes | Dye in Nose Skin [5]: Yes | Dye in Oral Cavity [5]: Yes | Dye in Stomach [5]: + | Dye in Esophagus Lower [6]: Yes/Yes | Dye in Esophagus Upper [6]: Yes/Yes | Dye in Larynx [6]: Yes | Dye in Nasal Cavity [6]: Yes | Dye in Nose Skin [6]: Yes | Dye in Oral Cavity [6]: Yes | Dye in Stomach [6]: + | Dye in Esophagus Upper [7]: Yes | Dye in Larynx [7]: Yes | Dye in Nasal Cavity [7]: Yes | Dye in Nose Skin [7]: Yes | Dye in Oral Cavity [7]: Yes | Dye in Larynx [8]: Yes | Dye in Nasal Cavity [8]: Yes | Dye in Nose Skin [8]: Yes | Dye in Intestine [9]: Yes | Dye in Larynx [9]: Traces | Dye in Nasal Cavity [9]: Yes | Dye in Oral Cavity [9]: Traces | Dye in Stomach [9]: ++ and + | Dye in Esophagus Lower [10]: Yes/Yes | Dye in Esophagus Upper [10]: Yes/Yes | Dye in Larynx [10]: Yes | Dye in Nasal Cavity [10]: Yes | Dye in Nose Skin [10]: Yes | Dye in Oral Cavity [10]: Yes | Dye in Trachea Lower [10]: Yes/Yes | Dye in Trachea Upper [10]: Yes/Yes | Dye in Intestine [11]: Yes | Dye in Larynx [11]: Yes | Dye in Nasal Cavity [11]: Yes | Dye in Nose Skin [11]: Yes | Dye in Oral Cavity [11]: Yes | Dye in Stomach [11]: ++ and + | Dye in Esophagus Lower [12]: Yes/Yes | Dye in Esophagus Upper [12]: Yes/Yes | Dye in Larynx [12]: Yes | Dye in Lung [12]: Traces | Dye in Nasal Cavity [12]: Yes | Dye in Nose Skin [12]: Yes | Dye in Oral Cavity [12]: Yes | Dye in Stomach [12]: ++ and + | Dye in Trachea Lower [12]: Yes/Yes | Dye in Trachea Upper [12]: Yes/Yes | Dye in Esophagus Lower [13]: Yes/Yes | Dye in Esophagus Upper [13]: Yes/Yes | Dye in Larynx [13]: Yes | Dye in Lung [13]: + | Dye in Nasal Cavity [13]: Yes | Dye in Nose Skin [13]: Yes | Dye in Oral Cavity [13]: Yes | Dye in Trachea Lower [13]: Yes/Yes | Dye in Trachea Upper [13]: Yes/Yes | Dye in Esophagus Lower [14]: Yes/Yes | Dye in Esophagus Upper [14]: Yes/Yes | Dye in Larynx [14]: Yes | Dye in Nasal Cavity [14]: Yes | Dye in Nose Skin [14]: Yes | Dye in Oral Cavity [14]: Yes | Dye in Stomach [14]: + | Dye in Esophagus Lower [15]: Yes/Yes | Dye in Esophagus Upper [15]: Yes/Yes | Dye in Larynx [15]: Yes | Dye in Nasal Cavity [15]: Yes | Dye in Nose Skin [15]: Yes | Dye in Oral Cavity [15]: Yes | Dye in Stomach [15]: + | Dye in Esophagus Upper [16]: Traces | Dye in Larynx [16]: Yes | Dye in Nasal Cavity [16]: Yes | Dye in Nose Skin [16]: Yes | Dye in Oral Cavity [16]: Yes | Dye in Esophagus Upper [17]: Traces | Dye in Larynx [17]: Yes | Dye in Nasal Cavity [17]: Yes | Dye in Nose Skin [17]: Yes | Dye in Oral Cavity [17]: Yes | Dye in Trachea Upper [17]: Traces | Dye in Larynx [18]: Yes | Dye in Nasal Cavity [18]: Yes | Dye in Nose Skin [18]: Yes | Dye in Oral Cavity [18]: Yes | Dye in Esophagus Lower [19]: Yes/Yes | Dye in Esophagus Upper [19]: Yes/Yes | Dye in Larynx [19]: Yes | Dye in Lung [19]: + and Traces | Dye in Nasal Cavity [19]: Yes | Dye in Nose Skin [19]: Yes | Dye in Stomach [19]: + | Dye in Trachea Lower [19]: Yes/Yes | Dye in Trachea Upper [19]: Yes/Yes | Dye in Esophagus Lower [20]: Yes/Yes | Dye in Esophagus Upper [20]: Yes/Yes | Dye in Intestine [20]: Yes | Dye in Larynx [20]: Yes | Dye in Lung [20]: + | Dye in Nasal Cavity [20]: Yes | Dye in Nose Skin [20]: Yes | Dye in Oral Cavity [20]: Yes | Dye in Stomach [20]: + | Dye in Trachea Lower [20]: Yes/Yes | Dye in Trachea Upper [20]: Yes/Yes | Dye in Esophagus Lower [21]: Yes/Yes | Dye in Esophagus Upper [21]: Yes/Yes | Dye in Larynx [21]: Yes | Dye in Nasal Cavity [21]: Yes | Dye in Nose Skin [21]: Yes | Dye in Oral Cavity [21]: Yes | Dye in Stomach [21]: ++ | Dye in Esophagus Lower [22]: Traces | Dye in Esophagus Upper [22]: Traces/ | Dye in Intestine [22]: Yes | Dye in Larynx [22]: Yes | Dye in Nasal Cavity [22]: Yes | Dye in Nose Skin [22]: Yes | Dye in Oral Cavity [22]: Yes | Dye in Stomach [22]: ++ and + | Dye in Esophagus Lower [23]: Yes/Yes | Dye in Esophagus Upper [23]: Yes/Yes | Dye in Larynx [23]: Yes | Dye in Nasal Cavity [23]: Yes | Dye in Nose Skin [23]: Yes | Dye in Oral Cavity [23]: Yes | Dye in Stomach [23]: ++ | Dye in Trachea Lower [23]: Yes/Yes; also recorded: Traces | Dye in Trachea Upper [23]: Yes/Yes and Yes/ | Dye in Esophagus Lower [24]: Yes/Yes | Dye in Esophagus Upper [24]: Yes/Yes | Dye in Larynx [24]: Yes | Dye in Lung [24]: + and ++ | Dye in Nasal Cavity [24]: Yes | Dye in Nose Skin [24]: Yes | Dye in Oral Cavity [24]: Yes | Dye in Stomach [24]: + | Dye in Trachea Lower [24]: Yes/Yes | Dye in Trachea Upper [24]: Yes/Yes | Dye in Esophagus Lower [25]: Yes/Yes | Dye in Esophagus Upper [25]: Yes/Yes | Dye in Larynx [25]: Yes | Dye in Nasal Cavity [25]: Yes | Dye in Nose Skin [25]: Yes | Dye in Oral Cavity [25]: Yes | Dye in Stomach [25]: + | Dye retention in nasal passages and sinuses by position (mice, prone versus supine position): the converse is true for mice | Dye retention in nasal passages and sinuses by alertness (mouse, alert versus anesthetized): an anesthetized state is preferred | Dye reaching stomach and esophagus (optimal divided dose conditions for the mouse (Table 9)): essentially no dye reached the stomach and very little dye reached the esophagus | Dye retention in nasal passages and sinus cavities (series of low doses versus a single larger dose): more material can be retained in the nasal passages and sinus cavities than when a single larger dose is used | Dye retention in nasal passages and sinuses versus loss (when a lower dose is used): more dye is retained in the nasal passages and sinuses and less dye is lost to the esophagus, stomach, intestines and lungs
